# Read-outs that look alike come from different tables or passages of the source.
# Target: T1, DβH (Homo sapiens, UniProt P09172)
# T1 construct: reaction mixture (total volume 500 μl) contained: cellular homogenate (75 μg total protein); host or cells: SK-N-SH cell homogenate
# T1 sequence (P09172 1-617): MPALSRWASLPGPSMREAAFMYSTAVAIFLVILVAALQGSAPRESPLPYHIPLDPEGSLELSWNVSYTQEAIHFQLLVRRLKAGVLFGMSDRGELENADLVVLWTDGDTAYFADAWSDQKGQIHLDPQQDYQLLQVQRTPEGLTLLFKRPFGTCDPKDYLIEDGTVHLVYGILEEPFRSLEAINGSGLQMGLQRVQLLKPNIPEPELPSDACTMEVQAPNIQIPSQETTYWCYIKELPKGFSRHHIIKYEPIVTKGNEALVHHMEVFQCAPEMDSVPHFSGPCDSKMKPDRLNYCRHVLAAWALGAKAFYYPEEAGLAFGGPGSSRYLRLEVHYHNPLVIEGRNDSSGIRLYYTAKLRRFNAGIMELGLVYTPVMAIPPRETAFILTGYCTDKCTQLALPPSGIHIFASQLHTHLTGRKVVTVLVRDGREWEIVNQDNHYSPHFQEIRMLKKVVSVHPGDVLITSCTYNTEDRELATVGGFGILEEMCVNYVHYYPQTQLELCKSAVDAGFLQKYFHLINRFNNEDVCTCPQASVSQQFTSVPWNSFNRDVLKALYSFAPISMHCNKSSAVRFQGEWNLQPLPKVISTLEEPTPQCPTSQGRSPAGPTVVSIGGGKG
# Test: DβH inhibition cell assay (SK-N-SH cellular homogenates, tyramine to octopamine)
# Type: biochemical
# Conditions: for remaining activity at 1 µM: read-out: DβH activity in % of Ctrl (1 μM); for remaining activity at 10 µM: inhibitor 10 μM, read-out: DβH activity in % of Ctrl (10 μM); for remaining activity at 0.1 µM: inhibitor 0.1 μM, read-out: DβH activity in % of Ctrl (0.1 μM)
# Description: The ability of a compound to inhibit DβH activity may be assessed using the following cell assay. […] . […] Fetal bovine serum was removed from cells for 4 h prior to collection.
# For the preparation of cellular homogenates, media was removed and cell monolayers were washed with 50 mM Tris-HCl pH 7.4. Cells were subsequently scrapped off the flasks and were resuspended in 50 mM Tris pH 7.4. Cell suspensions were homogenized with SilentCrusher M (Heidolph) for a short stroke and resultant homogenates were aliquoted and stored frozen at −80° C.
# Total protein was quantified in cellular homogenates with BioRad Protein Assay (BioRad) using a standard curve of BSA (50-250 μg/mL).
# DβH activity was measured by a modification of the method of Nagatsu and Udenfriend (Nagatsu, T. and S. Udenfriend: “Photometric assay of dopamine-hydroxylase activity in human blood.” Clin. Chem. 18(9): 980-3, 1972) which is based on the enzymatic hydroxylation of tyramine into octopamine. The octopamine formed is subsequently oxidized to p-hydroxybenzaldehyde and measured by spectrophotometry. In brief, reaction mixture (total volume 500 μl) contained: cellular homogenate (75 μg total protein) sodium acetate pH 5.0 (200 mM), NEM (30 mM), CuSO4 (5 μM), catalase aqueous solution (0.5 mg/mL), pargyline-HCl (1 mM), sodium fumarate (10 mM), ascorbic acid (10 mM), inhibitor or vehicle and tyramine (25 mM). After a 10 min pre-incubation period at 37° C., the reaction was initiated by the addition of tyramine. Reaction was carried out for 45 min at 37° C. before termination with 50 μl PCA (2 M).
# Samples were centrifuged for 3 min at 16100 g and supernatants were subjected to solid phase extraction. Solid phase extraction was performed using either SPE cartridges ISOLUTE SCX-3 (100 mg, 1 mL) or SPE 2 mL fixed 96 well plates ISOLUTE SCX-3 (100 mg) previously equilibrated with MilliQ water. Columns/plates were centrifuged at 150 g for 2 min. Eluate was discarded and matrix was washed with 1 mL of MilliQ water after which octopamine was eluted with 2×0.25 mL ammonium hydroxide (4 M). The oxidation of octopamine to p-hydroxybenzaldehyde was carried out for 6 min with 100 μl sodium periodate (2%) and was stopped with 100 μl sodium metabisulfite (10%). Absorbance was measured at 330 nm on a Spectramax microplate reader (Molecular Devices, Sunnyvale, Calif.). All enzymatic reactions were performed in duplicate. Results are reported in the table below as activity in % of control at the inhibitor concentration tested.
# [1] = inhibitor 1 μM, SK-N-SH cell homogenate
SMILES,remaining activity at 1 µM [1] [%],remaining activity at 10 µM (SK-N-SH cell homogenate) [%],remaining activity at 0.1 µM (SK-N-SH cell homogenate) [%],remaining activity at 1 µM [%]
"Fc1ccc([C@]23C[C@H]2c2c[nH]c(=S)n2C3)cc1F [Example 71, (5aS,6aR)-5a-(3,4-difluorophenyl)-5,5a,6,6a-tetrahydrocyclopropa[3,4]pyrrolo[1,2-c]imidazole-3(2H)-thione]",48.5,,,
"Cc1cccc(C2CCN(C(N)=S)C2)c1 (centres unmarked) [Example 14, 3-m-tolylpyrrolidine-1-carbothioamide]",,13.1,,
"CNC(=S)N1C[C@@]2(c3cc(F)cc(F)c3)C[C@H]2C1=O [Example 41, (1S,5R)-1-(3,5-difluorophenyl)-N-methyl-4-oxo-3-azabicyclo[3.1.0]hexane-3-carbothioamide]",0,,29.8,
"NC(=S)N1CCC(c2ccc(F)cc2)C1 (centres unmarked) [Example 3, 3-(4-Fluorophenyl)pyrrolidine-1-carbothioamide]",53.8,3.9,89,
"NNC(=S)N1CC2CC2(c2cc(F)cc(F)c2)C1 (centres unmarked) [Example 45, 1-(3,5-Difluorophenyl)-3-azabicyclo[3.1.0]hexane-3-carbothiohydrazide]",29.1,,,
"CN(C)C(=S)N1CC2CC2(c2cc(F)cc(F)c2)C1 (centres unmarked) [Example 46, 1-(3,5-Difluorophenyl)-N,N-dimethyl-3-azabicyclo[3.1.0]hexane-3-carbothioamide]",31.6,,,
"Fc1cccc([C@@]23C[C@@H]2c2c[nH]c(=S)n2C3)c1F [Example 67, (5aR,6aS)-5a-(2,3-difluorophenyl)-5,5a,6,6a-tetrahydrocyclopropa[3,4]pyrrolo[1,2-c]imidazole-3(2H)-thione]",36.1,,,
"Fc1cccc(F)c1[C@@]12C[C@@H]1c1c[nH]c(=S)n1C2 [Example 65, (5aR,6aS)-5a-(2,6-difluorophenyl)-5,5a,6,6a-tetrahydrocyclopropa[3,4]pyrrolo[1,2-c]imidazole-3(2H)-thione]",17.9,,,
"NC(=S)N1CCCC(c2ccccc2)C1 (centres unmarked) [Example 4, 3-phenylpiperidine-1-carbothioamide]",,18.6,,
"Cc1[nH]c(=S)n2c1C[C@@H](c1cc(F)cc(F)c1)C2 [Example 95, (S)-6-(3,5-difluorophenyl)-1-methyl-2,5,6,7-tetrahydro-3H-pyrrolo[1,2-c]imidazole-3-thione]",,,,28.9
"Fc1ccc(F)c([C@@]23C[C@@H]2c2c[nH]c(=S)n2C3)c1F [Example 69, (5aR,6aS)-5a-(2,3,6-trifluorophenyl)-5,5a,6,6a-tetrahydrocyclopropa[3,4]pyrrolo[1,2-c]imidazole-3 (2H)-thione]",14.6,,,
"NC(=S)N1CCC(c2c(F)c(F)c(F)c(F)c2F)C1 (centres unmarked) [Example 29, 3-(perfluorophenyl)pyrrolidine-1-carbothioamide]",,,26.9,

# More lines, main results first:
remaining activity at 1 µM [1] [%],remaining activity at 10 µM (SK-N-SH cell homogenate) [%],remaining activity at 0.1 µM (SK-N-SH cell homogenate) [%],SMILES,remaining activity at 1 µM [%]
15,,32,"Cc1[nH]c(=S)n2c1C[C@H](c1c(F)c(F)cc(F)c1F)C2 [Example 96, (R)-1-methyl-6-(2,3,5,6-tetrafluorophenyl)-2,5,6,7-tetrahydro-3H-pyrrolo[1,2-c]imidazole-3-thione]",
23,,,"Fc1cc(F)cc([C@]23C[C@H]2c2cn(C4CC4)c(=S)n2C3)c1 [Example 77, (5aS,6aR)-2-cyclopropyl-5 a-(3,5-difluorophenyl)-5,5a,6,6a-tetrahydrocyclopropa[3,4]pyrrolo[1,2-c]imidazole-3 (2H)-thione]",
20,,90,"Fc1cc(F)c(F)c([C@@H]2Cc3c[nH]c(=S)n3C2)c1 [Example 82, (S)-6-(2,3,5-trifluorophenyl)-2,5,6,7-tetrahydro-3H-pyrrolo[1,2-c]imidazole-3-thione]",
33.1,,84,"Fc1cc(F)c(F)c([C@H]2Cc3c[nH]c(=S)n3C2)c1 [Example 83, (R)-6-(2,3,5-trifluorophenyl)-2,5,6,7-tetrahydro-3H-pyrrolo[1,2-c]imidazole-3-thione]",
0,,0.5,"Fc1ccc(Br)c(F)c1[C@]12C[C@H]1c1c[nH]c(=S)n1C2 [Example 115, (5aS,6aR)-5a-(3-bromo-2,6-difluorophenyl)-5,5a,6,6a-tetrahydrocyclopropa[3,4]pyrrolo[1,2-c]imidazole-3 (2H)-thione]",
0,,0,"Fc1ccc(Br)cc1[C@]12C[C@H]1c1c[nH]c(=S)n1C2 [Example 93, (5aS,6aR)-5a-(5-bromo-2-fluorophenyl)-5,5a,6,6a-tetrahydrocyclopropa[3,4]pyrrolo[1,2-c]imidazole-3 (2H)-thione]",
0,,18.1,"Fc1cc(Br)cc([C@]23C[C@H]2c2c[nH]c(=S)n2C3)c1 [Example 94, (5aS,6aR)-5a-(3-bromo-5-fluorophenyl)-5,5a,6,6a-tetrahydrocyclopropa[3,4]pyrrolo[1,2-c]imidazole-3 (2H)-thione]",
0,,33.8,"Fc1ccc(Br)c(F)c1[C@H]1Cc2c[nH]c(=S)n2C1 [Example 118, (R)-6-(3-bromo-2,6-difluorophenyl)-2,5,6,7-tetrahydro-3H-pyrrolo[1,2-c]imidazole-3-thione]",
0,,5.2,"Cc1[nH]c(=S)n2c1[C@@H]1C[C@]1(c1c(F)ccc(Br)c1F)C2 [Example 121, (5aS,6aR)-5a-(3-bromo-2,6-difluorophenyl)-1-methyl-5,5a,6,6a-tetrahydrocyclopropa[3,4]pyrrolo[1,2-c]imidazole-3 (2H)-thione]",
6.2,,45.8,"Fc1ccc(Cl)c(F)c1[C@]12C[C@H]1c1n[nH]c(=S)n1C2 [Example 88, (5aS,6aR)-5a-(3-chloro-2,6-difluorophenyl)-5,5a,6,6a-tetrahydrocyclopropa[3,4]pyrrolo[2,1-c][1,2,4]triazole-3(2H)-thione]",
41.9,,96.9,"Fc1cccc(F)c1[C@@H]1Cc2c[nH]c(=S)n2C1 [Example 84, (S)-6-(2,6-difluorophenyl)-2,5,6,7-tetrahydro-3H-pyrrolo[1,2-c]imidazole-3-thione]",
13,,,"Cc1[nH]c(=S)n2c1[C@@H]1C[C@]1(c1cc(F)cc(F)c1)C2 [Example 79, (5aS,6aR)-5a-(3,5-difluorophenyl)-1-methyl-5,5a,6,6a-tetrahydrocyclopropa[3,4]pyrrolo[1,2-c]imidazole-3 (2H)-thione]",
4.5,,49.1,"Fc1ccc(Br)c(F)c1[C@]12C[C@H]1c1n[nH]c(=S)n1C2 [Example 119, (5aS,6aR)-5a-(3-bromo-2,6-difluorophenyl)-5,5a,6,6a-tetrahydrocyclopropa[3,4]pyrrolo[2,1-c][1,2,4]triazole-3(2H)-thione]",
0,,22,"[2H]C1([2H])n2c(c[nH]c2=S)[C@@H]2C[C@@]21c1cc(Cl)ccc1F [Example 91, (5aS,6aR)-5a-(5-chloro-2-fluorophenyl)-5,5a,6,6a-tetrahydrocyclopropa[3,4]pyrrolo[1,2-c]imidazole-3(2H)-thione-5,5-d2]",

# Reference: patent publication US10975083B2, “Blood-brain barrier-penetrant dopamine-β-hydroxylase inhibitors” (BIAL—PORTELA & Cᵃ, S.A., priority 2016, dated 2021)
